Source: ChEMBL document CHEMBL1201861, “Genomics of Drug Sensitity in Cancer screening data, Wellcome Trust Sanger Institute”

Tests used:
NCI-H64 = assay: cells; assay type: functional, cell-based, Homo sapiens; details: Homo sapiens, NCI-H64;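 also: growth inhibition of NCI-H64 cells, read out with a cell viability assay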
Description: SANGER: Inhibition of human NCI-H64 cell growth in a cell viability assay.

D-336MG = assay: cells; assay type: functional, cell-based, Homo sapiens; details: Homo sapiens, D-336MG
Description: SANGER: Inhibition of human D-336MG cell growth in a cell viability assay.

CAL-33 = assay: cells; assay type: functional, cell-based; details: Homo sapiens;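 also: growth inhibition of CAL-33 cells, read out with a cell viability assay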
Description: SANGER: Inhibition of human CAL-33 cell growth in a cell viability assay.

LOUCY = assay: cells; assay type: functional, cell-based, Homo sapiens; details: Homo sapiens, LOUCY;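 also: growth inhibition of human LOUCY cells, read out with a cell viability assay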
Description: SANGER: Inhibition of human LOUCY cell growth in a cell viability assay.

CAPAN-1 = assay: cells; assay type: functional, cell-based; details: Homo sapiens;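 also: growth suppression of CAPAN-1 cells, read out by a cell viability assay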
Description: SANGER: Inhibition of human CAPAN-1 cell growth in a cell viability assay.

IGR-1 = assay: cells; assay type: functional, cell-based; details: Homo sapiens;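 also: growth inhibition of human IGR-1 cells, read out with a cell viability assay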
Description: SANGER: Inhibition of human IGR-1 cell growth in a cell viability assay.

MC-IXC = assay: cells; assay type: functional, cell-based; details: Homo sapiens;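 also: growth inhibition of MC-IXC cells, read out with a cell viability assay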
Description: SANGER: Inhibition of human MC-IXC cell growth in a cell viability assay.

EB-3 = assay: cells; assay type: functional, cell-based, Homo sapiens; details: Homo sapiens, EB-3;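 also: human EB-3 cells, growth inhibition read out via a cell viability assay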
Description: SANGER: Inhibition of human EB-3 cell growth in a cell viability assay.

NCI-H2141 = assay: cells; assay type: functional, cell-based, Homo sapiens; details: Homo sapiens, NCI-H2141;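 also: growth inhibition of human NCI-H2141 cells, read out with a cell viability assay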
Description: SANGER: Inhibition of human NCI-H2141 cell growth in a cell viability assay.

RERF-LC-MS = assay: cells; assay type: functional, cell-based; details: Homo sapiens;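 also: growth inhibition of human RERF-LC-MS cells, read out by a cell viability assay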
Description: SANGER: Inhibition of human RERF-LC-MS cell growth in a cell viability assay.

RCM-1 = assay: cells; assay type: functional, cell-based; details: Homo sapiens;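 also: growth inhibition of the RCM-1 line, determined with a cell viability readout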
Description: SANGER: Inhibition of human RCM-1 cell growth in a cell viability assay.

NCI-H2171 = assay: cells; assay type: functional, cell-based, Homo sapiens; details: Homo sapiens, NCI-H2171;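 also: growth inhibition of human NCI-H2171 cells, read out by a cell viability assay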
Description: SANGER: Inhibition of human NCI-H2171 cell growth in a cell viability assay.

TYK-nu = assay: cells; assay type: functional, cell-based; details: Homo sapiens;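 also: growth inhibition of human TYK-nu cells, read out by a cell viability assay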
Description: SANGER: Inhibition of human TYK-nu cell growth in a cell viability assay.

NCI-H522 = assay: cells; assay type: functional, cell-based; details: Homo sapiens;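 also: cell viability assay measuring growth inhibition of human NCI-H522 cells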
Description: SANGER: Inhibition of human NCI-H522 cell growth in a cell viability assay.

NCI-H1437 = assay: cells; assay type: functional, cell-based; details: Homo sapiens;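 also: growth inhibition of human NCI-H1437 cells, read out by a cell viability assay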
Description: SANGER: Inhibition of human NCI-H1437 cell growth in a cell viability assay.

M059J = assay: cells; assay type: functional, cell-based; details: Homo sapiens;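 also: growth inhibition of M059J cells, read out with a cell viability assay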
Description: SANGER: Inhibition of human M059J cell growth in a cell viability assay.

BC1 cell line = assay: SANGER: Inhibition of human BC-1 cell growth in a cell viability assay.; assay type: functional, cell-based; details: Homo sapiens, BC1
Kasumi 1 = assay: cells; assay type: functional, cell-based, Homo sapiens; details: Homo sapiens, Kasumi 1;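 also: growth inhibition of human Kasumi-1 cells, read out by a cell viability assay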
Description: SANGER: Inhibition of human KASUMI-1 cell growth in a cell viability assay.

SK-OV-3 = assay: cells; assay type: functional, cell-based; details: Homo sapiens;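 also: growth inhibition of SK-OV-3 human cells, read out with a cell viability assay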
Description: SANGER: Inhibition of human SK-OV-3 cell growth in a cell viability assay.

LK-2 = assay: cells; assay type: functional, cell-based; details: Homo sapiens;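 also: growth inhibition of LK-2 cells, read out with a viability assay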
Description: SANGER: Inhibition of human LK-2 cell growth in a cell viability assay.

MDA-MB-453 = assay: cells; assay type: functional, cell-based; details: Homo sapiens
Description: SANGER: Inhibition of human MDA-MB-453 cell growth in a cell viability assay.

EGI-1 = assay: cells; assay type: functional, cell-based; details: Homo sapiens;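 also: cell viability readout used to gauge growth inhibition of EGI-1 cells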
Description: SANGER: Inhibition of human EGI-1 cell growth in a cell viability assay.

BXPC-3 = assay: cells; assay type: functional, cell-based; details: Homo sapiens;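 also: growth inhibition of human BxPC-3 cells, read out by a cell viability assay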
Description: SANGER: Inhibition of human BxPC-3 cell growth in a cell viability assay.

CHP-126 = assay: cells; assay type: functional, cell-based, Homo sapiens; details: Homo sapiens, CHP-126
Description: SANGER: Inhibition of human CHP-126 cell growth in a cell viability assay.

FTC-133 = assay: cells; assay type: functional, cell-based; details: Homo sapiens
SCC-9 = assay: cells; assay type: functional, cell-based; details: Homo sapiens;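 also: Read-out is a cell viability assay, with values giving inhibition of cell growth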
Description: SANGER: Inhibition of human SCC-9 cell growth in a cell viability assay.

KYSE-150 cell line = assay: cells; assay type: functional, cell-based; details: Homo sapiens;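 also: growth inhibition of human KYSE-150 cells, read out with a cell viability assay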
Description: SANGER: Inhibition of human KYSE-150 cell growth in a cell viability assay.

J82 = assay: cells; assay type: functional, cell-based; details: Homo sapiens;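 also: growth inhibition of J82 cells, read out with a cell viability assay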
Description: SANGER: Inhibition of human J82 cell growth in a cell viability assay.

Hs-578T = assay: cells; assay type: functional, cell-based; details: Homo sapiens
Description: SANGER: Inhibition of human Hs-578-T cell growth in a cell viability assay.

P12-Ichikawa = assay: cells; assay type: functional, cell-based; details: Homo sapiens
GP5d = assay: cells; assay type: functional, cell-based; details: Homo sapiens;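 also: growth inhibition of human GP5d cells, read out with a cell viability assay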
Description: SANGER: Inhibition of human GP5d cell growth in a cell viability assay.

KYSE-510 = assay: cells; assay type: functional, cell-based; details: Homo sapiens;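 also: cell viability readout used to measure how strongly growth of the cell line is suppressed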
Description: SANGER: Inhibition of human KYSE-510 cell growth in a cell viability assay.

G-401 = assay: cells; assay type: functional, cell-based; details: Homo sapiens
Description: SANGER: Inhibition of human G-401 cell growth in a cell viability assay.

HCC70 = assay: cells; assay type: functional, cell-based; details: Homo sapiens;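 also: cell viability assay measuring how strongly the compound suppresses proliferation of HCC70 cells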
Description: SANGER: Inhibition of human HCC70 cell growth in a cell viability assay.

NCI-H596 = assay: cells; assay type: functional, cell-based; details: Homo sapiens;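 also: growth inhibition of NCI-H596 cells, read out with a cell viability assay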
Description: SANGER: Inhibition of human NCI-H596 cell growth in a cell viability assay.

FaDu = assay: cells; assay type: functional, cell-based; details: Homo sapiens;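 also: cell viability readout of growth inhibition in FaDu cells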
Description: SANGER: Inhibition of human FADU cell growth in a cell viability assay.

NCI-H1963 = assay: cells; assay type: functional, cell-based, Homo sapiens; details: Homo sapiens, NCI-H1963
Description: SANGER: Inhibition of human NCI-H1963 cell growth in a cell viability assay.

HCC1395 = assay: cells; assay type: functional, cell-based; details: Homo sapiens;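 also: growth inhibition of HCC1395 cells, read out by a cell viability assay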
Description: SANGER: Inhibition of human HCC1395 cell growth in a cell viability assay.

HPAF-II = assay: cells; assay type: functional, cell-based; details: Homo sapiens;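 also: growth inhibition of HPAF-II cells, read out with a cell viability assay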
Description: SANGER: Inhibition of human HPAF-II cell growth in a cell viability assay.

HT55 = assay: cells; assay type: functional, cell-based; details: Homo sapiens;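 also: cell viability readout measuring growth inhibition of human HT55 cells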
Description: SANGER: Inhibition of human HT55 cell growth in a cell viability assay.

Ca-Ski = assay: cells; assay type: functional, cell-based; details: Homo sapiens;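 also: cell viability assay measuring inhibition of Ca-Ski cell growth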
Description: SANGER: Inhibition of human Ca-Ski cell growth in a cell viability assay.

SR = assay: cells; assay type: functional, cell-based, Homo sapiens; details: Homo sapiens, SR
Description: SANGER: Inhibition of human SR cell growth in a cell viability assay.

PF-382 = assay: cells; assay type: functional, cell-based, Homo sapiens; details: Homo sapiens, PF-382
Description: SANGER: Inhibition of human PF-382 cell growth in a cell viability assay.

NCI-H441 = assay: cells; assay type: functional, cell-based; details: Homo sapiens;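 also: growth inhibition of NCI-H441 cells, read out with a cell viability assay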
Description: SANGER: Inhibition of human NCI-H441 cell growth in a cell viability assay.

MDA-MB-361 = assay: cells; assay type: functional, cell-based; details: Homo sapiens
OPM-2 = assay: cells; assay type: functional, cell-based, Homo sapiens; details: Homo sapiens, OPM-2;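 also: growth of OPM-2 cells measured with a viability assay, IC50 for suppression of proliferation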
Description: SANGER: Inhibition of human OPM-2 cell growth in a cell viability assay.

CAL-120 = assay: cells; assay type: functional, cell-based; details: Homo sapiens;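 also: cell growth inhibition, read out as cell viability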
Description: SANGER: Inhibition of human CAL-120 cell growth in a cell viability assay.

RPMI-2650 = assay: cells; assay type: functional, cell-based; details: Homo sapiens
Description: SANGER: Inhibition of human RPMI-2650 cell growth in a cell viability assay.

MEL-HO = assay: cells; assay type: functional, cell-based; details: Homo sapiens
Description: SANGER: Inhibition of human MEL-HO cell growth in a cell viability assay.

HO-1-N-1 = assay: cells; assay type: functional, cell-based; details: Homo sapiens;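 also: growth inhibition of human HO-1-N-1 cells, read out with a cell viability assay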
Description: SANGER: Inhibition of human HO-1-N-1 cell growth in a cell viability assay.

MG-63 = assay: cells; assay type: functional, cell-based; details: Homo sapiens;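 also: growth inhibition of human MG-63 cells, read out with a cell viability assay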
Description: SANGER: Inhibition of human MG-63 cell growth in a cell viability assay.

DOK = assay: cells; assay type: functional, cell-based; details: Homo sapiens;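 also: cell viability assay read-out, values reflect inhibition of cell growth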
Description: SANGER: Inhibition of human DOK cell growth in a cell viability assay.

NCI-H1436 = assay: cells; assay type: functional, cell-based, Homo sapiens; details: Homo sapiens, NCI-H1436;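 also: growth suppression of human NCI-H1436 cells, determined with a cell viability readout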
Description: SANGER: Inhibition of human NCI-H1436 cell growth in a cell viability assay.

SCLC-21H = assay: cells; assay type: functional, cell-based, Homo sapiens; details: Homo sapiens, SCLC-21H;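 also: growth inhibition of cultured human SCLC-21H cells, read out with a cell viability assay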
Description: SANGER: Inhibition of human SCLC-21H cell growth in a cell viability assay.

KYSE-140 = assay: cells; assay type: functional, cell-based; details: Homo sapiens;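 also: cell viability assay measuring growth inhibition in human KYSE-140 cells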
Description: SANGER: Inhibition of human KYSE-140 cell growth in a cell viability assay.

A2780 = assay: cells; assay type: functional, cell-based; details: Homo sapiens;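 also: growth inhibition of A2780 cells, read out with a cell viability assay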
Description: SANGER: Inhibition of human A2780 cell growth in a cell viability assay.

YKG-1 = assay: cells; assay type: functional, cell-based; details: Homo sapiens;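 also: cell growth inhibition, read out with a viability assay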
Description: SANGER: Inhibition of human YKG-1 cell growth in a cell viability assay.

HC-1 = assay: cells; assay type: functional, cell-based, Homo sapiens; details: Homo sapiens, HC-1;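 also: growth inhibition of HC-1 cells measured by a cell viability assay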
Description: SANGER: Inhibition of human HC-1 cell growth in a cell viability assay.

K052 = assay: cells; assay type: functional, cell-based, Homo sapiens; details: Homo sapiens, K052;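 also: Read-out from a cell viability assay, IC50 reflecting suppression of K052 cell growth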
Description: SANGER: Inhibition of human K052 cell growth in a cell viability assay.

MOLT-13 = assay: cells; assay type: functional, cell-based; details: Homo sapiens;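 also: IC50 for suppression of MOLT-13 cell growth, read out with a cell viability assay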
Description: SANGER: Inhibition of human MOLT-13 cell growth in a cell viability assay.

`O=S(=O)(O)c1ccc2cc(/N=N/c3cc(S(=O)(=O)O)c4cccnc4c3O)ccc2c1` was tested, and the IC50 (NCI-H64) was > 16 µM, the IC50 (D-336MG) was > 16 µM and the IC50 (CAL-33) was > 16 µM. For the same compound, the IC50 (LOUCY) was > 16 µM, the IC50 (CAPAN-1) was > 16 µM and the IC50 (IGR-1) was > 16 µM. For the same compound, the IC50 (MC-IXC) was > 16 µM, the IC50 (EB-3) was > 16 µM and the IC50 (NCI-H2141) was > 16 µM. The IC50 (RERF-LC-MS) was > 16 µM, the IC50 (RCM-1) was > 16 µM and the IC50 (NCI-H2171) was > 16 µM. For the same compound, the IC50 (TYK-nu) was > 16 µM, the IC50 (NCI-H522) was > 16 µM and the IC50 (NCI-H1437) was > 16 µM. The IC50 (M059J) was 14.9 µM, the IC50 (BC1 cell line) was > 16 µM and the IC50 (Kasumi 1) was > 16 µM. The IC50 (SK-OV-3) was > 16 µM, the IC50 (LK-2) was > 16 µM and the IC50 (MDA-MB-453) was > 16 µM. For the same compound, the IC50 (EGI-1) was > 16 µM, the IC50 (BXPC-3) was > 16 µM and the IC50 (CHP-126) was > 16 µM. The IC50 (FTC-133) was > 16 µM, the IC50 (SCC-9) was > 16 µM and the IC50 (KYSE-150 cell line) was > 16 µM. For the same compound, the IC50 (J82) was > 16 µM, the IC50 (Hs-578T) was > 16 µM and the IC50 (P12-Ichikawa) was > 16 µM. For the same compound, the IC50 (GP5d) was > 16 µM, the IC50 (KYSE-510) was > 16 µM and the IC50 (G-401) was > 16 µM. The IC50 (HCC70) was > 16 µM, the IC50 (NCI-H596) was > 16 µM and the IC50 (FaDu) was > 16 µM. For the same compound, the IC50 (NCI-H1963) was > 16 µM, the IC50 (HCC1395) was > 16 µM and the IC50 (HPAF-II) was > 16 µM. For the same compound, the IC50 (HT55) was > 16 µM, the IC50 (Ca-Ski) was > 16 µM and the IC50 (SR) was > 16 µM. The IC50 (PF-382) was > 16 µM, the IC50 (NCI-H441) was > 16 µM and the IC50 (MDA-MB-361) was > 16 µM. The IC50 (OPM-2) was > 16 µM, the IC50 (CAL-120) was > 16 µM and the IC50 (RPMI-2650) was > 16 µM. For the same compound, the IC50 (MEL-HO) was > 16 µM, the IC50 (HO-1-N-1) was > 16 µM and the IC50 (MG-63) was > 16 µM. The IC50 (DOK) was > 16 µM, the IC50 (NCI-H1436) was > 16 µM and the IC50 (SCLC-21H) was > 16 µM. The IC50 (KYSE-140) was > 16 µM, the IC50 (A2780) was > 16 µM and the IC50 (YKG-1) was > 16 µM. For the same compound, the IC50 (HC-1) was > 16 µM and the IC50 (K052) was > 16 µM.

For `CC1=C(/C=C/C(C)=C/C=C/C(C)=C/C(=O)O)C(C)(C)CCC1` [TRETINOIN], the IC50 (D-336MG) was > 10 µM, the IC50 (CAL-33) was > 10 µM and the IC50 (CAPAN-1) was > 10 µM. The IC50 (IGR-1) was > 10 µM, the IC50 (MC-IXC) was 0.154 µM and the IC50 (RERF-LC-MS) was > 10 µM. The IC50 (RCM-1) was > 10 µM, the IC50 (TYK-nu) was > 10 µM and the IC50 (NCI-H1437) was > 10 µM. The IC50 (M059J) was > 10 µM, the IC50 (SK-OV-3) was > 10 µM and the IC50 (LK-2) was > 10 µM. For the same compound, the IC50 (MDA-MB-453) was > 10 µM, the IC50 (EGI-1) was > 10 µM and the IC50 (BXPC-3) was > 10 µM. The IC50 (FTC-133) was > 10 µM, the IC50 (SCC-9) was > 10 µM and the IC50 (KYSE-150 cell line) was > 10 µM. For the same compound, the IC50 (J82) was > 10 µM, the IC50 (MOLT-13) was 1.15 µM and the IC50 (Hs-578T) was > 10 µM. For the same compound, the IC50 (P12-Ichikawa) was > 10 µM, the IC50 (GP5d) was > 10 µM and the IC50 (KYSE-510) was > 10 µM. The IC50 (G-401) was > 10 µM, the IC50 (HCC70) was > 10 µM and the IC50 (NCI-H596) was > 10 µM. The IC50 (FaDu) was > 10 µM, the IC50 (HCC1395) was > 10 µM and the IC50 (HPAF-II) was > 10 µM. For the same compound, the IC50 (HT55) was > 10 µM, the IC50 (Ca-Ski) was > 10 µM and the IC50 (NCI-H441) was > 10 µM. For the same compound, the IC50 (MDA-MB-361) was > 10 µM, the IC50 (CAL-120) was > 10 µM and the IC50 (RPMI-2650) was > 10 µM. The IC50 (MEL-HO) was > 10 µM, the IC50 (HO-1-N-1) was > 10 µM and the IC50 (MG-63) was > 10 µM. For the same compound, the IC50 (DOK) was > 10 µM, the IC50 (KYSE-140) was > 10 µM and the IC50 (A2780) was > 10 µM. The IC50 (YKG-1) was > 10 µM and the IC50 (HC-1) was > 10 µM.
